Marks after values point to notes of the source that are not given here.
How the values were obtained:
malondialdehyde (MDA) = assay: Determination of malondialdehyde in stomach tissue; assay type: in vivo, rats; conditions: Sulindac 100, Compound 8 150, mean ±SEM
Method: In a study for the determination of malondialdehyde, non-protein sulfhydryls, and total protein, stomach tissues were removed from rats, and each tissue was homogenized in 0.15M KCl to give a 10% w/v homogenate. Aliquots of homogenate (1 mL) were incubated at 37° C. for three hours in a metabolic shaker. Then 1 mL of 10% aqueous trichloroacetic acid was added to the homogenate and mixed. This suspension was then centrifuged at 4000 rpm for 10 min. […] The mixture was cooled and diluted with 1 mL of distilled water. The absorbance of the solution was then read at 535 nm. The content of malondialdehyde (MDA) (nmol/g) was then calculated by reference to a standard curve of MDA solution.

[1] = system: non-protein sulfhydryls (NP-SH); assay: Non-protein sulfhydryls in stomach tissue; assay type: in vivo, rats; conditions: Sulindac 100, Compound 8 150, mean ±SEM
Method: […] non-protein sulfhydryls (NP-SH) were measured by homogenizing rat stomach tissues in ice cold 0.02 mmol/L ethylenediaminetetraacetic acid (EDTA). Aliquots of 5 mL of the homogenates were mixed in 15 mL test tube with 4 mL of distilled water and 1 mL of 50% trichloroacetic acid (TCA). The test tubes were shaken intermittently for 10 min. and centrifuged at 3000 rpm for 10 min. A total of 2 mL supernatant was mixed with 4 mL of […] tris buffer (pH 8.9). A total of 0.1 mL of 5,5-dithiobis(2-nitrobenzoic acid) ([…]) was added, and the sample was shaken. The absorbance was measured within 5 min. of addition of DTNB at 412 nm and compared to a reagent blank.

[2] = system: acute nociception (tail flick); assay: Analgesic study by tail flick method; assay type: in vivo, mice; conditions: Sulindac 100 mg/kg oral; for % Inhibition 30 min / Reaction Time 30 min / % Inhibition 60 min / Reaction Time 60 min / % Inhibition 120 min / Reaction Time 120 min: Compound 8 150 mg/kg; for Reaction Time 30 min / Reaction Time 60 min / Reaction Time 120 min / Reaction Time, Pre-drug: mean ±SEM; for Reaction Time, Pre-drug: pre-drug baseline, groups Compound 8 150 mg/kg
Method: (§1) All animal experiments used healthy male albino rats (200 g-220 g) and mice. The animals were kept in standard plastic animal cages in groups of six animals each with a 12 hour light and dark cycle. The animals were acclimatized to laboratory conditions for a week prior to the experiments.
In an analgesic study by tail flick method, acute nociception was assessed using a tail flick apparatus (Tail Flick model DS 20 Sorrel Apelex, France). Briefly, each animal was placed in a restrainer 2 min. before treatment and baseline reaction time was measured by focusing an intensity controlled beam of light on the distal one-third portion of the animal's tail. […] A 10 sec cut off time was used in order to prevent tissue damage.

[3] = system: gastric lesions induced by indomethacin; assay: Gastric lesions induced by indomethacin; assay type: in vivo, rats; conditions: for Ulcer Index: rats given indomethacin 30 mg/kg oral, Sulindac 100 mg/kg, Compound 8 150 mg/kg half an hour before, mean ±SEM
Method: as §1
In a study of the effect of sulindac derivatives on gastric lesions induced by indomethacin, a suspension of indomethacin in 1.0% carboxymethylcellulose (CMC) in water (6 mg/mL) at a dose of (30 mg/kg) body weight was administered orally to rats. Control rats were treated with the vehicle. Sulindac derivative Compound 8 was administered half an hour prior to indomethacin administration at a dose of 150 mg/kg.

[4] = system: yeast-induced hyperthermia; assay: Anti-pyretic study, brewer's yeast-induced hyperthermia; assay type: in vivo, mice; conditions: mean ±SEM; for Rectal temperature 30 min: 30 min after drug; for Rectal temperature 30 min / Rectal temperature 60 min / Rectal temperature 120 min: Compound 8 150 mg/kg; for Rectal temperature 30 min / Rectal temperature 60 min / Rectal temperature 120 min / Rectal temperature, Control: Sulindac 100 mg/kg; for Rectal temperature 60 min: 60 min after drug; for Rectal temperature 120 min: 120 min after drug; for Rectal temperature, Control: after yeast injection, pre-drug, groups Compound 8 150 mg/kg; for Rectal temperature, Normal: before yeast, groups later given Compound 8 150 mg/kg or Sulindac 100 mg/kg
Method: as §1
In an anti-pyretic study, hyperthermia was induced in mice by subcutaneous injection of 20 mL/kg of a 20% aqueous suspension of brewer's yeast in the back below of nape of the neck. The animals were fasted for 24 hours. Water was made available. Control rectal temperature was recorded 24 hours after the yeast injection to determine the pyretic response to yeast. Rectal temperature recordings were then taken 1 hour prior to drug administration in the fevered animals to serve as a pre drug control. […]

ethanol-induced ulcer = assay: Ulcer study using 80% ethanol (gastric mucosal damage score); assay type: in vivo, rats; conditions: sulindac 100 mg/kg; for Ulcer Index: mean ±SEM; for % Inhibition (ulcer index): Cmpd 8 150 mg/kg, versus 80% EtOH alone
Method: as §1
In an ulcer study of sulindac derivatives using 80% ethanol, the ethanol-induced ulcer model was used to study gastro-protective activity of sulindac derivative Compound 8. Rats were grouped into five groups (n=6). Group I received 80% ethanol only and served as an ulcer control. Group II received 80% ethanol and sulindac (100 mg/kg) orally. […] Animals in Group IV received sulindac (100 mg/kg body weight) without any ethanol. […] Animals of all Groups were sacrificed 1 hour later under anesthesia and their stomachs were quickly removed for further studies. The stomach was opened along the greater curvature, washed with distilled water and cleaned gently by dipping in saline. The mucosal damage was assessed according to the following scoring system: redness=0.5, spot ulcer=1.0, hemorrhagic streaks=1.5, ulcer>3 but<5=2.0, ulcers>5=3.0. The mean score of each treated group minus the mean score of the control group was taken as the severity index of gastric mucosal damage. Results were calculated by ANOVA followed by Dunnett's multiple comparison test and are summarized in Table 7, represent mean±SEM; ***=p<0.001 (n=6).

[5] = system: carrageenan-induced paw edema; assay: Carrageenan induced paw edema; assay type: in vivo, rats; conditions: Sulindac 100 mg/kg oral; for Paw volume before carrageenan: baseline, groups Compound 8 150 mg/kg, in mL (unit assumed)
Method: as §1
In a Carrageenan induced paw edema in rats study, Carrageenan sodium salt (0.05 mL of 1% BDH) was injected into the right hind foot of each rat (male or female, 200-220 g) under the plantar aponeurosis. The test group of was treated orally with a Sulindac derivative compound 1 hour before carrageenan injection. At the same time, the control group was given 5 mL/kg of normal saline and the reference group was given 100 mg/kg of an aqueous solution of sulindac. […] Inhibitory activity was calculated using the following:
[formula] where “B” is the mean paw volume of control rats after carrageenan injection, “Y” is the mean paw volume of control rats before the carrageenan injection, “X” is the mean paw volume of treated rats before carrageenan injection, and “A” is the mean paw volume of treated rats after the carrageenan injection.

[6] = with 80% EtOH, Cmpd 8 150 mg/kg oral, sacrificed 1 hour later
[7] = Compound 8 150 mg/kg, mean ±SEM
[8] = 5 hours, Compound 8 150 mg/kg, mean ±SEM

SMILES | MDA (malondialdehyde (MDA); drug alone, no ethanol) [nmol/g] | MDA (malondialdehyde (MDA); with 80% Ethanol 1 mL) [nmol/g] | NP-SH ([1]; drug alone, no ethanol) [nmol/g] | NP-SH ([1]; with 80% Ethanol 1 mL) [nmol/g] | % Inhibition 30 min [2] [%] | Reaction Time 30 min [2] [s] | % Inhibition 60 min [2] [%] | Reaction Time 60 min [2] [s] | % Inhibition 120 min [2] [%] | Reaction Time 120 min [2] [s] | Reaction Time, Pre-drug [2] [s] | Ulcer Index [3] | Rectal temperature 30 min [4] [°C] | Rectal temperature 60 min [4] [°C] | Rectal temperature 120 min [4] [°C] | Rectal temperature, Control [4] [°C] | Rectal temperature, Normal [4] [°C] | Ulcer Index (ethanol-induced ulcer; [6]) | % Inhibition (ulcer index) (ethanol-induced ulcer; with 80% EtOH) [%] | % Inhibition of paw edema after 3 hours ([5]; Compound 8 150 mg/kg) [%] | other results
CC1=C(CC(=O)N/N=C\c2ccc(N(C)C)cc2)c2cc(F)ccc2/C1=C\c1ccc([S+](C)[O-])cc1 (centres unmarked) [Compound 8] | 1.06 ± 0.02 | 1.59 ± 0.06 | 7.52 ± 0.31 | 6.62 ± 0.26 | 3.33 | 4.83 ± 0.30 | 46.66 | 7.33 ± 0.42 | 63.33 | 7.16 ± 0.30 | 5.00 ± 0.36 | 22.16 ± 1.10 | 38.15 ± 0.10 | 37.83 ± 0.15 | 37.33 ± 0.12 | 38.38 ± 0.19 | 35.16 ± 0.10 | 4.33 ± 0.4*** | 40.90 | 50.52 | % Inhibition (ulcer index) ([3]; rats given indomethacin 30 mg/kg, Compound 8 150 mg/kg, versus indomethacin alone): 40.09%; Increased paw volume after 3 hours, Mean [5, 7]: 1.34 ± 0.02; Increased paw volume after 3 hours, Net [5, 7]: 0.31 ± 0.03; % Inhibition of paw edema after 5 hours ([5]; 5 hours, Compound 8 150 mg/kg): 50.54%; Increased paw volume after 5 hours, Mean [5, 8]: 1.33 ± 0.01; Increased paw volume after 5 hours, Net [5, 8]: 0.30 ± 0.02; Paw volume before carrageenan ([5]; mean ±SEM): 1.02 ± 0.02
CC1=C(CC(=O)O)c2cc(F)ccc2/C1=C\c1ccc([S+](C)[O-])cc1 (centres unmarked) [Sulindac] | 1.31 ± 0.04 | 2.28 ± 0.11 | 7.00 ± 0.032 | 5.08 ± 0.28 | 13.79 | 5.50 ± 0.34 | 82.75 | 8.83 ± 0.79 | 127.58 | 11.00 ± 0.57 | 4.83 ± 0.40 | 32.00 ± 3.86 | 37.46 ± 0.14 | 37.16 ± 0.09 | 36.23 ± 0.08 | 38.21 ± 0.31 | 35.21 ± 0.11 | 6.83 ± 0.40 | 6.81 | 65.18 | Ulcer Index (ethanol-induced ulcer; drug alone, without ethanol, Compound 8 150 mg/kg oral): 1.33 ± 0.49; Increased paw volume after 3 hours, Mean [5, 7]: 1.26 ± 0.03; Increased paw volume after 3 hours, Net [5, 7]: 0.22 ± 0.01; % Inhibition of paw edema after 5 hours ([5]; 5 hours, Compound 8 150 mg/kg): 65.02%; Increased paw volume after 5 hours, Mean [5, 8]: 1.25 ± 0.03; Paw volume before carrageenan ([5]; mean ±SEM): 1.03 ± 0.03

From patent US10329249B1, “Sulindac derivatives” (KING SAUD UNIVERSITY, priority 2018, dated 2019)
